Data as given in US10730863B2, “Bridged bicyclic compounds as farnesoid X receptor modulators” (BRISTOL-MYERS SQUIBB COMPANY, priority 2017, dated 2020).

Target: FXR (Homo sapiens (Human), UniProt Q96RI1)
Experiment: FXR EC50 (FXR agonist activity reported with each example)
Assay type: cell-based

Chain of FXR (Q96RI1 262-486): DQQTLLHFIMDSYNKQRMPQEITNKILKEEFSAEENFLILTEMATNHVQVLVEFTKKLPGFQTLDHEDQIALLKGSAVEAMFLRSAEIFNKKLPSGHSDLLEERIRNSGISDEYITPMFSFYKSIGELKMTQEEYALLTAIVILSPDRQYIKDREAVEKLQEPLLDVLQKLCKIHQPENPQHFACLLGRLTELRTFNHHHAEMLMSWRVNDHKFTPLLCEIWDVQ

Row | Structure (SMILES) | EC50 [nM]
1 | NC(=O)c1cc(F)c2nc(C(O)C34CCC(OCc5c(-c6c(Cl)cccc6Cl)noc5C5CC5)(CC3)CC4)sc2c1 (stereo not drawn) [Example 123, 2-((4-((5-cyclopropyl-3-(2,6-dichlorophenyl)isoxazol-4-yl)methoxy)bicyclo[2.2.2]octan-1-yl)(hydroxy)methyl)-4-fluorobenzo[d]thiazole-6-carboxamide] | 280
2 | O=C(O)c1ccc2nc(C(O)C34CCC(OCc5c(-c6c(Cl)cccc6Cl)noc5C5CC5)(CC3)CC4)sc2c1 (stereo not drawn) [Example 124, 2-((4-((5-cyclopropyl-3-(2,6-dichlorophenyl)isoxazol-4-yl)methoxy)bicyclo[2.2.2]octan-1-yl)(hydroxy)methyl)benzo[d]thiazole-6-carboxylic acid] | 490
3 | O=C(O)c1ccc(C(O)C23CCC(OCc4c(-c5c(Cl)cccc5Cl)noc4C4CC4)(CC2)CC3)c(F)c1 (stereo not drawn) [Example 125, 4-((4-((5-cyclopropyl-3-(2,6-dichlorophenyl)isoxazol-4-yl)methoxy)bicyclo[2.2.2]octan-1-yl)(hydroxy)methyl)-3-fluorobenzoic acid] | 1600
4 | O=C(O)c1ccc2cc(C(O)C34CCC(OCc5c(-c6c(Cl)cccc6Cl)noc5C5CC5)(CC3)CC4)ccc2c1 (stereo not drawn) [Example 126, 6-((4-((5-cyclopropyl-3-(2,6-dichlorophenyl)isoxazol-4-yl)methoxy)bicyclo[2.2.2]octan-1-yl)(hydroxy)methyl)-2-naphthoic acid] | 600
5 | O=C(O)c1cccc(CC(O)C23CCC(OCc4c(-c5c(Cl)cccc5Cl)noc4C4CC4)(CC2)CC3)c1 (stereo not drawn) [Example 127, 3-(2-(4-((5-cyclopropyl-3-(2,6-dichlorophenyl)isoxazol-4-yl)methoxy)bicyclo[2.2.2]octan-1-yl)-2-hydroxyethyl)benzoic acid] | 280
6 | O=C(O)c1ccc2c(C(O)C34CCC(OCc5c(-c6c(Cl)cccc6Cl)noc5C5CC5)(CC3)CC4)ccnc2c1 (stereo not drawn) [Example 128, 4-((4-((5-cyclopropyl-3-(2,6-dichlorophenyl)isoxazol-4-yl)methoxy)bicyclo[2.2.2]octan-1-yl)(hydroxy)methyl)quinoline-7-carboxylic acid] | 700
7 | O=C(O)C1(c2cccc(C(O)C34CCC(OCc5c(-c6c(Cl)cccc6Cl)noc5C5CC5)(CC3)CC4)c2)CC1 (stereo not drawn) [Example 129, 1-(3-((4-((5-cyclopropyl-3-(2,6-dichlorophenyl)isoxazol-4-yl)methoxy)bicyclo[2.2.2]octan-1-yl)(hydroxy)methyl)phenyl)cyclopropane-1-carboxylic acid] | 3000
8 | O=C(O)c1cccc(C#CC23CCC(OCc4c(-c5c(Cl)cccc5Cl)noc4C4CC4)(CC2)CC3)c1 [Example 130, 3-((4-((5-cyclopropyl-3-(2,6-dichlorophenyl)isoxazol-4-yl)methoxy)bicyclo[2.2.2]octan-1-yl)ethynyl)benzoic acid] | 68
9 | O=C(O)c1cccc(-n2cc(C34CCC(OCc5c(-c6c(Cl)cccc6Cl)noc5C5CC5)(CC3)CC4)nn2)c1 [Example 131, 3-(4-(4-((5-cyclopropyl-3-(2,6-dichlorophenyl)isoxazol-4-yl)methoxy)bicyclo[2.2.2]octan-1-yl)-1H-1,2,3-triazol-1-yl)benzoic acid] | 460
10 | O=C(O)c1ccnc(C#CC23CCC(OCc4c(-c5c(Cl)cccc5Cl)noc4C4CC4)(CC2)CC3)c1 [Example 132, 2-((4-((5-cyclopropyl-3-(2,6-dichlorophenyl)isoxazol-4-yl)methoxy)bicyclo[2.2.2]octan-1-yl)ethynyl)isonicotinic acid] | 3500
11 | O=C(O)c1cc(F)c2nc(C#CC34CCC(OCc5c(-c6c(Cl)cncc6Cl)noc5C5CC5)(CC3)CC4)sc2c1 [Example 133, 2-((4-((5-cyclopropyl-3-(3,5-dichloropyridin-4-yl)isoxazol-4-yl)methoxy)bicyclo[2.2.2]octan-1-yl)ethynyl)-4-fluorobenzo[d]thiazole-6-carboxylic acid] | 180
12 | O=C(O)c1ccc2nc(C34CCC(OCc5c(-c6c(Cl)cccc6Cl)noc5C5CC5)(CC3)CC4)ccc2c1 [Example 134, 2-(4-((5-cyclopropyl-3-(2,6-dichlorophenyl)isoxazol-4-yl)methoxy)bicyclo[2.2.2]octan-1-yl)quinoline-6-carboxylic acid] | 83
13 | Cn1cc(C(=O)O)c2ccc(C34CCC(OCc5c(-c6c(Cl)cccc6Cl)noc5C5CC5)(CC3)CC4)nc21 [Example 135, 6-(4-((5-cyclopropyl-3-(2,6-dichlorophenyl)isoxazol-4-yl)methoxy)bicyclo[2.2.2]octan-1-yl)-1-methyl-1H-pyrrolo[2,3-b]pyridine-3-carboxylic acid] | 9
14 | O=C(O)c1ccc2nc(C34CCC(OCc5c(-c6c(Cl)cccc6Cl)noc5C5CC5)(CC3)CC4)ccc2n1 [Example 136, 6-(4-((5-cyclopropyl-3-(2,6-dichlorophenyl)isoxazol-4-yl)methoxy)bicyclo[2.2.2]octan-1-yl)-1,5-naphthyridine-2-carboxylic acid] | 36
15 | O=C(O)c1ccnc(C23CCC(OCc4c(-c5c(Cl)cccc5Cl)noc4C4CC4)(CC2)CC3)c1 [Example 137, 2-(4-((5-cyclopropyl-3-(2,6-dichlorophenyl)isoxazol-4-yl)methoxy)bicyclo[2.2.2]octan-1-yl)isonicotinic acid] | 420
16 | O=C(O)c1ccc(C23CCC(OCc4c(-c5c(Cl)cccc5Cl)noc4C4CC4)(CC2)CC3)nc1 [Example 138, 6-(4-((5-cyclopropyl-3-(2,6-dichlorophenyl)isoxazol-4-yl)methoxy)bicyclo[2.2.2]octan-1-yl)nicotinic acid] | 440
17 | O=C(O)c1cccc2c1CCN(C(=O)C13CCC(OCc4c(-c5c(Cl)cccc5Cl)noc4C4CC4)(CC1)CC3)C2 [Example 139, 2-(4-((5-cyclopropyl-3-(2,6-dichlorophenyl)isoxazol-4-yl)methoxy)bicyclo[2.2.2]octane-1-carbonyl)-1,2,3,4-tetrahydroisoquinoline-5-carboxylic acid] | 1400

Row | Structure (SMILES) | EC50 [nM]
18 | O=C(O)c1ccc2c(c1)CCN(C(=O)C13CCC(OCc4c(-c5c(Cl)cccc5Cl)noc4C4CC4)(CC1)CC3)C2 [Example 140, 2-(4-((5-cyclopropyl-3-(2,6-dichlorophenyl)isoxazol-4-yl)methoxy)bicyclo[2.2.2]octane-1-carbonyl)-1,2,3,4-tetrahydroisoquinoline-6-carboxylic acid] | 1700
19 | O=C(O)c1ccc(CNC(=O)C23CCC(OCc4c(-c5c(Cl)cccc5Cl)noc4C4CC4)(CC2)CC3)cc1 [Example 141, 4-((4-((5-cyclopropyl-3-(2,6-dichlorophenyl)isoxazol-4-yl)methoxy)bicyclo[2.2.2]octane-1-carboxamido)methyl)benzoic acid] | 2800
20 | O=C(O)c1ccccc1CNC(=O)C12CCC(OCc3c(-c4c(Cl)cccc4Cl)noc3C3CC3)(CC1)CC2 [Example 142, 2-((4-((5-cyclopropyl-3-(2,6-dichlorophenyl)isoxazol-4-yl)methoxy)bicyclo[2.2.2]octane-1-carboxamido)methyl)benzoic acid] | 1300
21 | O=C(O)c1cccc(CNC(=O)C23CCC(OCc4c(-c5c(Cl)cccc5Cl)noc4C4CC4)(CC2)CC3)c1 [Example 143, 3-((4-((5-cyclopropyl-3-(2,6-dichlorophenyl)isoxazol-4-yl)methoxy)bicyclo[2.2.2]octane-1-carboxamido)methyl)benzoic acid] | 1300
22 | CN(Cc1ccccc1C(=O)O)C(=O)C12CCC(OCc3c(-c4c(Cl)cccc4Cl)noc3C3CC3)(CC1)CC2 [Example 144, 2-((4-((5-cyclopropyl-3-(2,6-dichlorophenyl)isoxazol-4-yl)methoxy)-N-methylbicyclo[2.2.2]octane-1-carboxamido)methyl)benzoic acid] | 160
23 | O=C(O)CC1CCN(C(=O)C23CCC(OCc4c(-c5c(Cl)cccc5Cl)noc4C4CC4)(CC2)CC3)CC1 [Example 145, 2-(1-(4-((5-cyclopropyl-3-(2,6-dichlorophenyl)isoxazol-4-yl)methoxy)bicyclo[2.2.2]octane-1-carbonyl)piperidin-4-yl)acetic acid] | 3800
24 | O=C(O)c1cccc2c1CN(C(=O)C13CCC(OCc4c(-c5c(Cl)cccc5Cl)noc4C4CC4)(CC1)CC3)CC2 [Example 146, 2-(4-((5-cyclopropyl-3-(2,6-dichlorophenyl)isoxazol-4-yl)methoxy)bicyclo[2.2.2]octane-1-carbonyl)-1,2,3,4-tetrahydroisoquinoline-8-carboxylic acid] | 3100
25 | O=C(O)c1cccc(-c2noc(C34CCC(COCc5c(-c6c(Cl)cccc6Cl)noc5C5CC5)(CC3)CC4)n2)c1 [Example 151, 3-(5-(4-(((5-cyclopropyl-3-(2,6-dichlorophenyl)isoxazol-4-yl)methoxy)methyl)bicyclo[2.2.2]octan-1-yl)-1,2,4-oxadiazol-3-yl)benzoic acid] | 150
26 | O=C(O)c1ccc(-c2noc(C34CCC(COCc5c(-c6c(Cl)cccc6Cl)noc5C5CC5)(CC3)CC4)n2)cc1 [Example 152] | 140
27 | O=C(O)c1cccc(-c2noc(C34CCC(COCc5c(-c6ccccc6OC(F)(F)F)noc5C5CC5)(CC3)CC4)n2)c1 [Example 153] | 320
28 | O=C(O)c1ccc(-c2noc(C34CCC(COCc5c(-c6ccccc6OC(F)(F)F)noc5C5CC5)(CC3)CC4)n2)cc1 [Example 154] | 960
29 | COC(=O)c1ccc(-c2noc(C34CCC(COCc5c(-c6ccccc6OC(F)(F)F)noc5C5CC5)(CC3)CC4)n2)cc1 [Example 155] | 2500
30 | COC(=O)c1ccc(-c2noc(C34CCC(COCc5c(-c6c(Cl)cccc6Cl)noc5C5CC5)(CC3)CC4)n2)cc1 [Example 156] | 1700
31 | O=C(O)c1cccc(-c2noc(C34CCC(/C=C/c5c(-c6c(Cl)cccc6Cl)noc5C5CC5)(CC3)CC4)n2)c1 [Example 159, (E)-3-(5-(4-(2-(5-cyclopropyl-3-(2,6-dichlorophenyl)isoxazol-4-yl)vinyl)bicycle[2.2.2]octan-1-yl)-1,2,4-oxadiazol-3-yl)benzoic acid] | 14
32 | O=C(O)c1ccc(-c2noc(C34CCC(/C=C/c5c(-c6c(Cl)cccc6Cl)noc5C5CC5)(CC3)CC4)n2)cc1 [Example 160] | 51
33 | COC(=O)c1ccc(-c2noc(C34CCC(C=Cc5c(-c6c(Cl)cccc6Cl)noc5C5CC5)(CC3)CC4)n2)cc1 [Example 161] | 950
